Data on one compound can be found in paper PMC9501983, “Transport and Permeation Properties of Dapivirine: Understanding Potential Drug-Drug Interactions” (Pharmaceutics, 2022).

For one data set, the target named is T1, ENT1 (Homo sapiens, UniProt Q99808).
T1 construct: host or cells: HEK293
T1 sequence (Q99808 1-456): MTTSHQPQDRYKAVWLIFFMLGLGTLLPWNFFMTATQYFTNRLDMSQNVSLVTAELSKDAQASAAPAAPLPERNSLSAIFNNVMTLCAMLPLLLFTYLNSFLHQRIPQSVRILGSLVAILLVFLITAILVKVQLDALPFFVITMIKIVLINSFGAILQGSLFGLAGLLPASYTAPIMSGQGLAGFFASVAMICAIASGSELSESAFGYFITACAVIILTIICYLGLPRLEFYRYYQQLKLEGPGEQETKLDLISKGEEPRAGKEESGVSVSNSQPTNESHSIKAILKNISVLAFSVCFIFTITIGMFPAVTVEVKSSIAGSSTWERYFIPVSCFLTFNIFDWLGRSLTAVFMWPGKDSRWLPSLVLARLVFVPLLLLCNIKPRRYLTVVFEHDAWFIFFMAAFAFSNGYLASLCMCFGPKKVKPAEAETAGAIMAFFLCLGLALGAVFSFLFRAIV
In words: Cellular uptake in HEK293 ENT1 and EV cells. It counts as in vitro ADME. Here is the method:
HEK293 ENT1 and HEK293 EV cells were seeded at a density of 5 x 10^4 cells per well in 24-well plates and cultured for 4 days. Before the uptake assay, cells were starved in serum-free minimum essential medium at 37 °C for 3 h to activate the ENT1 transporter. The assays were performed in Krebs-Ringer buffer with pH 7.4 supplemented with 25 mM sodium bicarbonate and 1.2 mM calcium chloride dihydrate. […] 200 nM nitrobenzylthioinosine was also used as the positive control for ENT1 inhibition.
Starved cells were first incubated with respective inhibitor solution or blank Krebs-Ringer buffer for 30 min at 37 °C. […] To terminate the assay, ice-cold Dulbecco’s phosphate-buffered saline was added to cells. Cells were then washed twice with ice-cold Dulbecco’s phosphate-buffered saline and lysed with 1% SDS at room temperature for 20 min. […] The drug uptake was normalized against protein content. Changes in drug uptake between groups were calculated using the mean uptake values of individual groups.

On the set-up of data set [1]: method as in PMID 26034880. The note with it: DPV ring clinical study (IPM 026); cited from earlier work.
For another data set, the system named is CYP1A1. Also noted: method as in PMID 34959473. The note with it: cited from earlier work.
A further data set concerns HEC-1-A cells. In words: Tight junction disruption, TEER of HEC-1-A monolayers in Ussing chamber. The note with it: apical treatment in HBSS without Ca/Mg; DPV 5 μM, MIC 5 μM, combination 5 μM each, EGTA 2 mM. It counts as cell-based, human. The protocol: HEC-1-A cells were seeded at a density of 9000 cells per cm^2 onto 0.4 μm permeable snapwell inserts (Corning Inc., Corning, NY, USA). […] Only monolayers displaying TEER values above the threshold indicating confluency (130 Ωcm^2) were considered qualified to be used in this study.
To evaluate tight junction disruption, qualified HEC-1-A cell monolayers were mounted onto the Ussing Chamber apparatus (Physiologic Instruments, San Diego, CA, USA) to monitor TEER values. After equilibrating cells with HBSS at 37 °C for 20 min, buffer in basolateral chambers was replaced with HBSS without calcium or magnesium (HBSS Ca^−&Mg^−), while buffer in the apical chambers was replaced with respective treatment solution in HBSS Ca^−&Mg^-. Treatments included 5 μM DPV, 5 μM MIC, and 5 μM DPV with 5 μM MIC. 2 mM EGTA, a known tight junction disruptor that decreases TEER, was used as the positive control and blank HBSS Ca^-&Mg^- was used as negative control. Cells were incubated at 37 °C for 80 min and the obtained TEER values were normalized against initial measurements at time 0.

The next data set relates to CYP3A4. The arrangement: method as in PMID 34959473. The note with it: cited from earlier work.
A short description of data set [2]: DPV tissue permeability across excised human ectocervical tissue (in-line cell). The class given is in vitro ADME. Particulars: female, human; 182 µM DPV alone in vaginal fluid simulant pH 4.2, 360 min; read-out: Papp across human cervical tissue. From the text:
Freshly excised human ectocervical tissue samples from 6 pre-menopausal women were obtained through the Pitt Biospecimen Core at the University of Pittsburgh under an IRB-approved protocol (IRB# PRO09110431). Tissue samples were immersed in ice-cold Dulbecco’s modified Eagle medium during transfer from the surgery site to the laboratory. Tissue samples were then processed as previously reported, where excess stromal tissue was removed using a scalpel, and the epithelium was isolated using a Stadie-Riggs tissue slicer. The isolated epithelium sections were then mounted onto the in-line cell apparatus (PermeGear, Cranford, NJ, USA), a flow-through type Franz cell, with the epithelial side facing the apical compartment. A small piece of tissue sample was fixed in 10% formalin as the pre-treatment control for histology evaluation.
Vaginal fluid simulant was used to prepare drug solutions. Vaginal fluid simulant was prepared using a reported formulation (3.51 g L^−1 sodium chloride, 1.40 g L^−1 potassium hydroxide, 0.22 g L^−1 calcium hydroxide, 0.018 g L^−1 bovine serum albumin, 2.00 g L^−1 lactic acid, 1.00 g L^−1 acetic acid, 0.16 g L^−1 glycerin, 0.4 g L^−1 urea, and 5.0 g L^−1 glucose) and adjusted to pH 4.2 with 1N hydrochloric acid. To evaluate the impact of MIC on DPV tissue permeability, 450 μL of a mixture containing 182 µM (60 μg g^−1) DPV and 63 mM (30 mg g^−1) MIC was added to the apical compartment and compared to 182 µM (60 μg g^−1) DPV alone. […] One half of the tissue sample was fixed in 10% formalin for subsequent histological evaluation, while the other half was used for drug quantification. To quantify drug tissue levels, each tissue sample was digested overnight in 2 mL Solvable held at 50 °C. […] Samples were then cooled to room temperature and 1.5 mL of each sample was used for quantification. To quantify ^3H-DPV and ^14C-mannitol, each vial of collected sample was mixed with 2 mL scintillation cocktail and analyzed on an LS6500 liquid scintillation counter. Papp was calculated using Equation (2) as described above.

Another data set deals with MRP1. The arrangement: method as in PMID 26102284. The note with it: DPV at 10 μM; cited from earlier work.

`Cc1cc(C)c(Nc2ccnc(Nc3ccc(C#N)cc3)n2)c(C)c1` [DPV, dapivirine]: the “Cellular uptake of thymidine in HEK293 ENT1 cells, reduced to % of control” value on ENT1 (5 nM thymidine, nitrobenzylthioinosine 200 nM, DPV 5 μM) is reported as “no significant impact”. In addition, the “Cellular uptake of DPV in HEK293 ENT1 cells compared with HEK293 EV cells” value at ENT1 (0.5 μM DPV, 10 min, 37 °C) is on record as “similar”. For the same compound, the “Substrate status for ENT1” value at ENT1 (cellular system) is “not a substrate”. Further, the DPV tissue concentration in data set [1] is 1.8 µM. In the data set on CYP1A1, the “Substrate of CYP1A1” value was “substrate”. The “Relative TEER percentage of baseline value at 80 min” value with HEC-1-A cells is listed as 94.7 ± 7.8%. Moreover, the “Substrate of CYP3A4” value in the data set on CYP3A4 is on record as “substrate”. In data set [2], the Papp at 360 min, 182 µM was determined as 0.88 ± 0.53 ×10⁻⁶ cm/s. Further, the “Effect on MRP1 expression level” value in the data set with MRP1 is recorded as “upregulated”.
